Assay results reported in publication PMC3989841 (Journal of nuclear medicine : official publication, Society …, 2013).
Where “and” joins values, the source holds several entries; their conditions need not be identical. Equal entries are not always repeated.

Assays:
[1] = mean of subjects with reduced renal function
[2] = normal renal function; cited from earlier work
[3] = mean ± SD, subjects with chronic kidney disease
[4] = Plasma protein binding; settings: mean ± SD of 8 subjects with chronic kidney disease
[5] = Percentage injected dose in urine, voided at 30 and 180 min; settings: for Percentage of injected dose in urine: individual patients 1–8; for Percentage of injected dose in urine, mean ± SD: mean ± SD of 8 subjects
[6] = Red cell; settings: mean ± SD of 8 subjects with chronic kidney disease
[7] = renal extraction; cited from earlier work

| SMILES | Mean plasma clearance (not normalised to body surface) [1] [mL/min] | Normal plasma clearance [2] [mL/min] | Relative uptake in the left kidney [3] | PPB (%), mean ± SD [4] [%] | Percentage of injected dose in urine ([5]; 30 min after injection) | Percentage of injected dose in urine, mean ± SD ([5]; 30 min after injection) [%] | Percentage of injected dose in urine, mean ± SD ([5]; 180 min (3 h) after injection) | Percentage of injected dose in urine, mean ± SD ([5]; 180 min (3 h) after injection, listed as OIH) [%] | Percentage of injected dose in urine ([5]; 180 min after injection) | RBC (%) (red cell uptake), mean ± SD [6] | RBC (%) (red cell uptake), mean ± SD ([6]; listed as OIH) | Extraction fraction [7] |
| --- | --- | --- | --- | --- | --- | --- | --- | --- | --- | --- | --- | --- |
| O=C(O)CNC(=O)c1ccccc1[131I] [^131I-OIH, ^131I-o-iodohippuran] | 198 | 472 to 530 | 55.5% ± 8.1% | 71 ± 5 | 46% and 47% and 24% and 38% and 50% and 42% and 41% and 33% | 40 ± 8 | 78% ± 11% | 78 ± 11 | 81% and 59% and 76% and 98% and 75% and 77% and 79% | 16% ± 2% | 16 ± 2 |  |
| O=C([O-])CN(CCN(CC(=O)[O-])CC(=O)[O-])CCN(CC(=O)[O-])CC(=O)[O-].[99Tc+4] [^99mTc-DTPA, ^99mTc-diethyltriaminepentaacetic acid] |  |  |  |  |  |  |  |  |  |  |  | approximately 20% |
